Results from paper PMC6753678, “Fueling Open Innovation for Malaria Transmission-Blocking Drugs: Hundreds of Molecules Targeting Early Parasite Mosquito Stages” (Frontiers in Microbiology, 2019).
“And” between values parts separate entries of the source, which are not always exact repeats. Equal entries are not always repeated. Where two headings read alike, the source gives them in different places.

Assays:
[1] = tested on: P. berghei ookinete development; test: microbe, parasite or virus in culture; conditions: Plasmodium berghei
[2] = tested on: 3D7-strain P. falciparum asexual parasites; test: P. falciparum asexual growth inhibition assay (Pf GIA); type: cell-based, Plasmodium falciparum; conditions: Plasmodium falciparum
Procedure, shortened: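 0.25% parasitemia, 2% Hct, RPMI/HEPES/hypoxanthine/5% Albumax; compound dose response, 72 h, 37°C, 5% CO2, 5% O2, 90% N2. Freeze-thaw, then LDH assay, A650. % inhibition vs chloroquine (50 μM)/DMSO, mean of 3 independent runs.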

[3] = tested on: P. berghei oocyst intensity in Anopheles stephensi mosquitoes; test: P. berghei standard membrane feeding assay (Pb SMFA); conditions: for Raw mosquito counts (oocysts per mosquito): one mosquito per cell; for Number of oocysts counted per mosquito (raw mosquito counts): individual mosquito
[4] = tested on: P. berghei ookinete development
HepG2 cells [5] = conditions: cited from earlier work
[6] = tested on: P. falciparum male gametocytes; test: P. falciparum Dual Gamete Formation Assay (Pf DGFA), male readout; conditions: for Pf DGFA Male, Expt 1 / Pf DGFA Male, Expt 2 / Pf DGFA Male, Expt 3 / Pf DGFA Male, Expt 4: 1µM; for % inhibition Pf DGFA (male) 1 μM (±SEM): mean of four experiments; for inhibition at 1 µM: Plasmodium falciparum, read-out: % inhibition Pf DGFA (male) 1 μM (±SEM), 1 μM, mean of four experiments
[7] = tested on: P. falciparum female gametocytes; design: method as in Miguel-Blanco et al 2017; conditions: ref Miguel-Blanco et al 2017, read-out: Pf FGAA IC50, cited from earlier work
[8] = tested on: P. falciparum female gametocytes; test: P. falciparum female gametogenesis assay (Pf FGAA); conditions: 1: YES; 0: NO
HepG2 cells [9] = test: HepG2 cytotoxicity assay; conditions: for IC50: Homo sapiens, HepG2, 48 h, read-out: IC50 HepG2; for Pb ODA (this manuscript) HepG2 cytoxicity: HepG2 cytotoxicity listed with the Pb ODA data set (this manuscript)
Procedure, shortened: (§1)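 Cells at 2,500 per well in MEM with 10% fetal bovine serum and 1% NEAA were exposed to test compounds for 48 h at 37°C, 5% CO2. Viability was read by fluorescence, with percent inhibition calculated against 50 μM doxorubicin (positive) and DMSO (negative) controls.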

[10] = tested on: P. falciparum female gametocytes; test: P. falciparum Dual Gamete Formation Assay (Pf DGFA), female readout; conditions: for Pf DGFA Female, Expt 1 / Pf DGFA Female, Expt 2 / Pf DGFA Female, Expt 3 / Pf DGFA Female, Expt 4: 1µM; for % inhibition Pf DGFA (female) 1 μM (±SEM): mean of four experiments; for inhibition at 1 µM: Plasmodium falciparum, read-out: % inhibition Pf DGFA (female) 1 μM (±SEM), 1 μM, mean of four experiments
[11] = tested on: P. falciparum late stage (stages IV-V) gametocytes; design: method as in Almela et al 2016; conditions: TCAMS screen comparison; ref Almela et al 2016; read-out: Pf GCT ATP IC50; cited from earlier work
HepG2 cytotoxicity assay = conditions: human, HepG2 cells
Procedure, shortened: as §1

[12] = read-out: % inhibition, Replicate A
[13] = read-out: % inhibition, Replicate B
[14] = read-out: IC50 Pb ODA, dose response, at least triplicate
[15] = 3D7, dose response confirmation, read-out: Pf asexual growth inhibition assays IC50
[16] = 3D7, 72 h, LDH readout, read-out: IC50 Pf Asexual
[17] = read-out: % inhibition Pb SMFA 1 μM (±SEM), inhibition of oocyst intensity at 1 μM
[18] = read-out: Pb Ookinete development assay IC50 (µM), dose response confirmation

## Cn1c(Sc2ncnc3sccc23)nc2ccccc21 [TCMDC-124514]
[1]; [12]
  inhibition at 1 µM: 109%
[1]; [13]
  inhibition at 1 µM: 101%
[1]; [14]
  IC50: 0.398 µM
[1]; read-out: Pb ODA IC50, this manuscript
  IC50: 0.4 µM
[2]; [15]
  IC50: 187 nM
[2]; [16]
  IC50: 188 nM
[3]; inhibition of oocyst intensity at 1 μM
  % inhibition Pb SMFA 1 μM (±SEM): 9.1%
[3]; [17]
  inhibition at 1 µM: 9.07%
[4]; 1: YES, 0: NO
  Is compound selective in assay? Pb ODA active?: 1 (1: YES)
[4]; [14]
  IC50: > 250 nM and 397 nM
HepG2 cells [5]; HepG2, ref Miguel-Blanco et al 2017
  HepG2 cytoxicity (Pf FGAA screen): >100 µM
[6]
  Pf DGFA Male, Expt 1: 96.96
  Pf DGFA Male, Expt 2: 90.56
  Pf DGFA Male, Expt 3: 99.40
  Pf DGFA Male, Expt 4: 95.50
  % inhibition Pf DGFA (male) 1 μM (±SEM): 95.61%
  inhibition at 1 µM: 95.6%
[7]
  IC50: 1250 nM
[8]
  Is compound selective in assay? Pf FGAA active?: 1 (1: YES)
HepG2 cells [9]; HepG2 values of the three screens unified
  Unified cytotox: 100.00 µM
HepG2 cells [9]
  IC50: > 100000 nM
[10]
  Pf DGFA Female, Expt 1: 99.03
  Pf DGFA Female, Expt 2: 87.98
  Pf DGFA Female, Expt 3: 99.79
  Pf DGFA Female, Expt 4: 75.95
  % inhibition Pf DGFA (female) 1 μM (±SEM): 90.69%
  inhibition at 1 µM: 90.7%

## CC[C@H]1CN2CCc3cc(OC)c(OC)cc3[C@@H]2C[C@@H]1C[C@H]1NCCc2cc(OC)c(OC)cc21 [TCMDC-125531]
[1]; [12]
  inhibition at 1 µM: 93.2%
[1]; [13]
  inhibition at 1 µM: 121%
[1]; read-out: Pb ODA IC50 (µM), this manuscript
  IC50: 0.21 µM
[1]; [18]
  IC50: 0.213 µM
[11]
  IC50: 350 nM
[2]; [15]
  IC50: 72 nM
HepG2 cells [5]; value reported with the Pf FGAA screen, ref Miguel-Blanco et al 2017
  HepG2 cytoxicity: 9.77 µM
HepG2 cells [5]; value reported with the Pf GCT ATP screen, ref Almela et al 2016
  HepG2 cytoxicity: 21.03 µM
[7]; TCAMS screen comparison
  IC50: 2730 nM
HepG2 cells [9]; human
  Unified cytotox: 10.78 µM
HepG2 cells [9]; value reported with the Pb ODA screen, this manuscript
  HepG2 cytoxicity: 1.55 µM
HepG2 cytotoxicity assay
  IC50 at 48 h: 1550 nM

## Cc1[nH]c(C)c(-c2ccc(CCc3ccc(F)cc3F)cc2)c(=O)c1Br [TCMDC-135461]
[1]; [12]
  inhibition at 1 µM: 68.3%
[1]; [13]
  inhibition at 1 µM: 109%
[1]; [14]
  IC50: < 0.0002 µM
[2]; [15]
  IC50: 3 nM
[2]; [16]
  IC50: 3.1 nM
[3]; Experiment 4, 10nM
  Mean (number of oocysts counted per mosquito): 0.78
  Prevalence: 45.65
[3]; Experiment 4, 100nM
  Mean (number of oocysts counted per mosquito): 0.00
  Raw mosquito counts (oocysts per mosquito): 0
[3]; Experiment 4, 1µM
  Mean (number of oocysts counted per mosquito): 0.00
  Prevalence: 0.00
  Raw mosquito counts (oocysts per mosquito): 0
[3]; Experiment 5, 10nM
  Mean (number of oocysts counted per mosquito): 2.70
  Prevalence: 45.65
[3]; Experiment 5, 100nM
  Mean (number of oocysts counted per mosquito): 1.53
  Number of oocysts counted per mosquito (raw mosquito counts): 0 and 1 and 3
[3]; Experiment 5, 1µM
  Mean (number of oocysts counted per mosquito): 0.00
  Prevalence: 0.00
  Number of oocysts counted per mosquito (raw mosquito counts): 0
  Raw mosquito counts (oocysts per mosquito): 0
[3]; Experiment 6, 10nM
  Mean (number of oocysts counted per mosquito): 58.31
  Prevalence: 98.15
[3]; Experiment 6, 100nM
  Mean (number of oocysts counted per mosquito): 21.75
  Prevalence: 86.76
  Number of oocysts counted per mosquito (raw mosquito counts): 30
[3]; Experiment 6, 1µM
  Mean (number of oocysts counted per mosquito): 0.00
  Prevalence: 0.00
  Number of oocysts counted per mosquito (raw mosquito counts): 0
  Raw mosquito counts (oocysts per mosquito): 0
[3]; read-out: % inhibition (oocyst intensity), Experiment 4, 100nM, vs DMSO
  inhibition at 0.1 µM: 100%
[3]; read-out: % inhibition (oocyst intensity), Experiment 4, 1µM, vs DMSO
  inhibition at 1 µM: 100%
[3]; read-out: % inhibition (oocyst intensity), Experiment 5, 10nM, vs DMSO
  inhibition at 0.01 µM: 28.9%
[3]; read-out: % inhibition (oocyst intensity), Experiment 5, 100nM, vs DMSO
  inhibition at 0.1 µM: 59.6%
[3]; read-out: % inhibition (oocyst intensity), Experiment 5, 1µM, vs DMSO
  inhibition at 1 µM: 100%
[3]; read-out: % inhibition (oocyst intensity), Experiment 6, 10nM, vs DMSO
  inhibition at 0.01 µM: 30.5%
[3]; read-out: % inhibition (oocyst intensity), Experiment 6, 100nM, vs DMSO
  inhibition at 0.1 µM: 74.1%
[3]; read-out: % inhibition (oocyst intensity), Experiment 6, 1µM, vs DMSO
  inhibition at 1 µM: 100%
[3]; [17]
  inhibition at 1 µM: 100%
[3]; read-out: % prev inhibition, Experiment 4, 1µM, vs DMSO
  inhibition at 1 µM: 100%
[3]; read-out: % prev inhibition, Experiment 5, 1µM, vs DMSO
  inhibition at 1 µM: 100%
[3]; read-out: % prev inhibition, Experiment 6, 10nM, vs DMSO
  inhibition at 0.01 µM: 1.85%
[3]; read-out: % prev inhibition, Experiment 6, 100nM, vs DMSO
  inhibition at 0.1 µM: 13.2%
[3]; read-out: % prev inhibition, Experiment 6, 1µM, vs DMSO
  inhibition at 1 µM: 100%
[3]; read-out: inhibition of oocyst intensity Pb SMFA, 10 nM
  inhibition at 0.01 µM: 43%
[3]; read-out: inhibition of oocyst intensity Pb SMFA, 100 nM
  inhibition at 0.1 µM: 77.9%
[4]
  Is compound selective in assay? Pb ODA active?: 1 (key: 1: YES; 0: NO)
[6]
  Pf DGFA Male, Expt 1: 97.72
  Pf DGFA Male, Expt 2: 60.95
  Pf DGFA Male, Expt 3: 69.63
  Pf DGFA Male, Expt 4: 73.29
  inhibition at 1 µM: 75.4%
HepG2 cells [9]
  Pb ODA (this manuscript) HepG2 cytoxicity: 100.00 µM
  IC50: > 100000 nM
[10]
  Pf DGFA Female, Expt 1: 72.43
  Pf DGFA Female, Expt 2: 81.97
  Pf DGFA Female, Expt 3: -31.20
  Pf DGFA Female, Expt 4: -13.42
  % inhibition Pf DGFA (female) 1 μM (±SEM): 27.45%
  inhibition at 1 µM: 27.4%

## CCCCCCCc1c(C)nc2cc(OC)ccc2c1O [TCMDC-137173, endochin]
[1]; [12]
  inhibition at 1 µM: 115%
[1]; [13]
  inhibition at 1 µM: 101%
[1]; [14]
  IC50: < 0.06 µM
[1]; read-out: Pb ODA (this manuscript) IC50 (µM), P. berghei ookinete development assay, this manuscript
  IC50: 0.0248 µM
[1]; [18]
  IC50: 0.025 µM
[2]; [15]
  IC50: 35 nM
[2]; [16]
  IC50: 35.2 nM
[3]; [17]
  inhibition at 1 µM: 98.4%
[4]
  Is compound selective in assay? Pb ODA active?: 1 (key: 1: YES; 0: NO)
[6]
  Pf DGFA Male, Expt 1: 94.68
  Pf DGFA Male, Expt 2: 60.36
  Pf DGFA Male, Expt 3: 74.13
  Pf DGFA Male, Expt 4: 77.74
  % inhibition Pf DGFA (male) 1 μM (±SEM): 76.7% and 76.73%
  inhibition at 1 µM: 76.7%
HepG2 cells [9]
  Pb ODA (this manuscript) HepG2 cytoxicity: 100.00 µM
  IC50: > 100000 nM
[10]
  Pf DGFA Female, Expt 1: 46.16
  Pf DGFA Female, Expt 2: 7.10
  Pf DGFA Female, Expt 3: 41.06
  Pf DGFA Female, Expt 4: -10.25
  % inhibition Pf DGFA (female) 1 μM (±SEM): 21.02%
  inhibition at 1 µM: 21%
